In ChEMBL document CHEMBL1150623, “Two new triterpene esters from the twigs of Brachylaena ramiflora from the Madagascar rainforest” (J Nat Prod, 2002):
Converted amounts (≈) assume the structure as drawn. Numbered stars: 1 amine (or outer) side, 2 acyl side, 3 side chain; on linkers, the order of the positions; unused ones are H or OH. Bridge positions count the residues as written; N and C are the ends. Square brackets hold non-standard residues; d marks the D form. Peptide text beside a SMILES is read from it. I, II: the chains in the order shown. Actinocin(1to9) = Cc1c2oc3c(C)ccc(C(=O)[*:2])c3nc-2c(C(=O)[*:1])c(N)c1=O; NMeV = CN[C@H](C(=O)O)C(C)C; Sar = CNCC(=O)O

Tested on: A2780
Assay: Cytotoxicity against human A2780 cells
Type: functional, cell-based

SMILES | IC50
CCCCCCCCCCCCCCCC(=O)O[C@H]1CC[C@]2(C)[C@H]3CC=C4[C@@H]5CC(C)(C)CC[C@]5(C)CC[C@@]4(C)[C@]3(C)CC[C@H]2C1(C)C | 13.4 µg/mL (≈ 20.1 µM)
CCCCCCCCCCCCCCCC(=O)O[C@H]1CC[C@]2(C)[C@H]3CC=C4[C@@H]5CCCC(C)(C)[C@@]5(C)CC[C@@]4(C)[C@]3(C)CC[C@H]2C1(C)C [KAIRATENYL PALMITATE] | 10 µg/mL (≈ 15 µM)
CC(=O)O[C@H]1CC[C@]2(C)[C@H]3CC=C4[C@@H]5CC(C)(C)CC[C@]5(C)CC[C@@]4(C)[C@]3(C)CC[C@H]2C1(C)C [beta-AMYRIN ACETATE] | 12.1 µg/mL
C=C(C)[C@@H]1CC[C@]2(C)CC[C@]3(C)[C@H](CC[C@@H]4[C@@]5(C)CC[C@H](OC(C)=O)C(C)(C)[C@@H]5CC[C@]43C)[C@@H]12 [LUPENYL ACETATE] | 15 µg/mL
C=C(C)[C@H]1CC[C@]2(C)C3CC[C@@H]4[C@@]5(C)CC[C@H](OC(=O)CCCCCCCCCCCCCCC)C(C)(C)[C@@H]5CC[C@@]4(C)[C@]3(C)CC[C@@H]12 (stereo partly drawn) [HOPENYL PALMITATE] | 11.6 µg/mL (≈ 17.4 µM)
C=C(C)[C@@H]1CC[C@]2(C)CC[C@]3(C)[C@H](CC[C@@H]4[C@@]5(C)CC[C@H](O)C(C)(C)[C@@H]5CC[C@]43C)[C@@H]12 [LUPEOL] | 16.2 µg/mL (≈ 38 µM)
Cc1c2oc3c(C)ccc(C(=O)N[C@@H]4C(=O)N[C@H](C(C)C)C(=O)N5CCC[C@H]5C(=O)N(C)CC(=O)N(C)[C@@H](C(C)C)C(=O)O[C@@H]4C)c3nc-2c(C(=O)N[C@@H]2C(=O)N[C@H](C(C)C)C(=O)N3CCC[C@H]3C(=O)N(C)CC(=O)N(C)[C@@H](C(C)C)C(=O)O[C@@H]2C)c(N)c1=O [DACTINOMYCIN] (I: T[dV]P[Sar][NMeV] / II: T[dV]P[Sar][NMeV]; ester I:1-I:C, II:1-II:C; linker I:N-II:N via Actinocin(1to9)) | 0.002 µg/mL (≈ 0.00159 µM)
CCCCCCCCCCCCCCCC(=O)O[C@H]1CC[C@]2(C)[C@H]3CC=C4[C@@H]5[C@@H](C)[C@H](C)CC[C@@]5(C)CC[C@@]4(C)[C@]3(C)CC[C@H]2C1(C)C | 15.4 µg/mL (≈ 23.2 µM)
